Experimental data: ChEMBL document CHEMBL1909046, “DrugMatrix in vitro pharmacology data”

Legend:
[1] = target: 5-hydroxytryptamine receptor 2B (Homo sapiens, UniProt P41595); type: cell membranes, CHO-K1, Membrane; conditions: cho-k1; note: in other assays of this panel Not Active means under 50% inhibition at 10 µM
Estrogen receptor beta = Estrogen receptor beta (Homo sapiens, UniProt Q92731); conditions: sf9; note: in other assays of this panel Not Active means under 50% inhibition at 10 µM
[2] = DRUGMATRIX: Calcium Channel Type L, Phenylalkylamine radioligand binding (ligand: [3H] (-)-Desmethoxyverapamil (D-888)); type: cell membranes, Rattus norvegicus, Wistar, Brain, Membrane; conditions: Not Active = under 50% inhibition at 10 µM
Cytochrome P450 2C19 = Cytochrome P450 2C19 (Homo sapiens, UniProt P33261); conditions: bti-tn-5b1-4; note: in other assays of this panel Not Active means under 50% inhibition at 10 µM
Cytochrome P450 1A2 = target: T1, Cytochrome P450 1A2 (Homo sapiens, UniProt P05177); conditions: bti-tn-5b1-4; note: in other assays of this panel Not Active means under 50% inhibition at 10 µM
T1 sequence (P05177 whole entry): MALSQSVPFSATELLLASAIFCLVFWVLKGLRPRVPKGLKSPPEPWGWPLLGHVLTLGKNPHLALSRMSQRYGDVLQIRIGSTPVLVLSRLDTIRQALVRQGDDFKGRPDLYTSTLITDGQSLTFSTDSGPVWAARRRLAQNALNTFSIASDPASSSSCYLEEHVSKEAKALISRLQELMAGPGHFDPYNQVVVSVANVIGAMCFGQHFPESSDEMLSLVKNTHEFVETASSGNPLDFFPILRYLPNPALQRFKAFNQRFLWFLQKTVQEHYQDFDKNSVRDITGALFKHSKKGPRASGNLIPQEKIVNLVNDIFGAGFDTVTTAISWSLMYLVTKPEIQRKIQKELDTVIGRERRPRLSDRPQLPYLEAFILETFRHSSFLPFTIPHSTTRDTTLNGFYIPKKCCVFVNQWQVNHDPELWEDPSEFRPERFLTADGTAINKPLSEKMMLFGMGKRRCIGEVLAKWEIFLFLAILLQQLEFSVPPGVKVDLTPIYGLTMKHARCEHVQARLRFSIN

D(3) dopamine receptor = D(3) dopamine receptor (Homo sapiens, UniProt P35462); assay: DRUGMATRIX: Dopamine D3 radioligand binding (ligand: [3H] Spiperone); type: cell membranes, CHO, Membrane; conditions: cho
Sequence of D(3) dopamine receptor (P35462 whole entry): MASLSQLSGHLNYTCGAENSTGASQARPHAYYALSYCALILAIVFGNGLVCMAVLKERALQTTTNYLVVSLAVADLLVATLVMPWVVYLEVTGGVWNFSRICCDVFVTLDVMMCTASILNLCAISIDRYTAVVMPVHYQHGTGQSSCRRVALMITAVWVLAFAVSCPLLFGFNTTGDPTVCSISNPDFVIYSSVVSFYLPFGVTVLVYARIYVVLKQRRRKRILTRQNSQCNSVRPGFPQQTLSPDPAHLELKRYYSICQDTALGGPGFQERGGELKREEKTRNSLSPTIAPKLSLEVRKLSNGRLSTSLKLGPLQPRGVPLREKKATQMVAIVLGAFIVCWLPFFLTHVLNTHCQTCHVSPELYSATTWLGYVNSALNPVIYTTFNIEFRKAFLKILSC

Sequence of Estrogen receptor beta (Q92731 whole entry): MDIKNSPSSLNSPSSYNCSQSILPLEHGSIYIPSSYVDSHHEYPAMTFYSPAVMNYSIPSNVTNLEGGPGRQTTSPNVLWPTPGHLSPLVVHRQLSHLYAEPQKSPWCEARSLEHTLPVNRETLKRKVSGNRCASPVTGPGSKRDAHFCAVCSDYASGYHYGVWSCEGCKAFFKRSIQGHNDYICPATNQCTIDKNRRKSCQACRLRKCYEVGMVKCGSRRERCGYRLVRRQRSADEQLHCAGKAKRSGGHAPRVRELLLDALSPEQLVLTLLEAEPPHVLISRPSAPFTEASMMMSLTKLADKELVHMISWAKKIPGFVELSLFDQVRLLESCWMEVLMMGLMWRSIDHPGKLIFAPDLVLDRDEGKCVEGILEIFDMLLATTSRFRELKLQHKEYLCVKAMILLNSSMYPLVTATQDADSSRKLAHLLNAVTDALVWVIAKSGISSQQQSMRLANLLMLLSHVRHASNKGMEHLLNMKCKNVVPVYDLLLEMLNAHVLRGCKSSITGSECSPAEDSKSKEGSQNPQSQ
Sequence of 5-hydroxytryptamine receptor 2B (P41595 whole entry): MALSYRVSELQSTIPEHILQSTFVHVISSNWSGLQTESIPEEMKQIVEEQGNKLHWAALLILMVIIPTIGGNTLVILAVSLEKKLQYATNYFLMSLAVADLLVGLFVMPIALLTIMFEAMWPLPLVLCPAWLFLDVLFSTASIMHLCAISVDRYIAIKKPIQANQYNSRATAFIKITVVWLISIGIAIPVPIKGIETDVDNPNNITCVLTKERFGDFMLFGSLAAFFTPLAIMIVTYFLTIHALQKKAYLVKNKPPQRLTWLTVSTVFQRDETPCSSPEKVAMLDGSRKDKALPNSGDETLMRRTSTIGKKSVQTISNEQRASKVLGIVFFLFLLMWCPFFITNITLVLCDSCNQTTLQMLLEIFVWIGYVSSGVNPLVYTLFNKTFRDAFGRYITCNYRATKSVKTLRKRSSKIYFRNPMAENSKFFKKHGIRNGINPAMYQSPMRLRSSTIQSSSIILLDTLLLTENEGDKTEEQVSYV
Sequence of Cytochrome P450 2C19 (P33261 whole entry): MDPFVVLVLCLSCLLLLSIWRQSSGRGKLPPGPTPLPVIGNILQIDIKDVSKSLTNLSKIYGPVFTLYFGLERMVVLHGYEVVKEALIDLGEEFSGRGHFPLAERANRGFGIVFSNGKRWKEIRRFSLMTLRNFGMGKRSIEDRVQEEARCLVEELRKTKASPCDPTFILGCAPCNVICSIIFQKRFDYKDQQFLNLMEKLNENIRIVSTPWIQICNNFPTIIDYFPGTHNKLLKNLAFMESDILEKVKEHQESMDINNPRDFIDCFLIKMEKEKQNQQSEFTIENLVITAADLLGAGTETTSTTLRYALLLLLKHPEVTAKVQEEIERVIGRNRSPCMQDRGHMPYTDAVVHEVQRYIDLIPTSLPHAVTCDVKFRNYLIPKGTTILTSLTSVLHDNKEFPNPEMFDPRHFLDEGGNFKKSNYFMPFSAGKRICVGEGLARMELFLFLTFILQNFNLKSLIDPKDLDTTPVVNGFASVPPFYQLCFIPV

Cc1cccc(C)c1NC(=O)C(C)N (centres undefined) [TOCAINIDE]
Not Active: IC50 [1] | IC50 (Estrogen receptor beta) | IC50 [2] | Ki [2] | IC50 (Cytochrome P450 2C19) | Ki (Cytochrome P450 2C19) | IC50 (Cytochrome P450 1A2) | Ki (Cytochrome P450 1A2) | IC50 (D(3) dopamine receptor)

CC[C@@]1(O)C(=O)OCc2c1cc1n(c2=O)Cc2cc3c(CN(C)C)c(O)ccc3nc2-1 [TOPOTECAN]
Not Active: IC50 [1] | IC50 (Estrogen receptor beta) | IC50 [2] | Ki [2] | IC50 (Cytochrome P450 2C19) | Ki (Cytochrome P450 2C19) | IC50 (Cytochrome P450 1A2) | Ki (Cytochrome P450 1A2) | IC50 (D(3) dopamine receptor)

CN1C(=O)OC(C)(C)C1=O [TRIMETHADIONE]
Not Active: IC50 [1] | IC50 (Estrogen receptor beta) | IC50 [2] | Ki [2] | IC50 (Cytochrome P450 2C19) | Ki (Cytochrome P450 2C19) | IC50 (Cytochrome P450 1A2) | Ki (Cytochrome P450 1A2) | IC50 (D(3) dopamine receptor)

LEAD(IV) ACETATE
Not Active: IC50 [1] | Ki [1] | IC50 (Estrogen receptor beta) | Ki (Estrogen receptor beta) | IC50 [2] | Ki [2] | IC50 (Cytochrome P450 2C19) | Ki (Cytochrome P450 2C19) | IC50 (Cytochrome P450 1A2) | Ki (Cytochrome P450 1A2) | IC50 (D(3) dopamine receptor) | Ki (D(3) dopamine receptor)
